# Experimental data reported in ChEMBL document CHEMBL1157539, “Thousands of chemical starting points for antimalarial lead identification” (Nature, 2010).
# Tested on: Plasmodium falciparum
# Assay: GSK_TCMDC: Inhibition of Plasmodium falciparum 3D7 in whole erythrocytes, using parasite LDH activity as an index of growth.
# Format: functional, organism-based
# Conditions: Plasmodium falciparum, 3D7
row,Structure (SMILES),XC50 [nM]
1,O=C1NC(=S)N/C1=C/C=C/c1ccc([N+](=O)[O-])o1,1070
2,Cc1cc(N/N=C/c2ccc([N+](=O)[O-])cc2)c2ccc(F)cc2n1,888
3,Cc1cc(=O)c(-c2ccc(Oc3ccc(OC(F)(F)F)cc3)cc2)c(C)[nH]1,363
4,COC(=O)c1ccc2nc(-c3ccc(/C=C/C(=O)NCc4ccc(Cl)c(Cl)c4)cc3)[nH]c2c1,1340
5,CCOc1ccc(CN(CCc2ccc3c(c2)OCO3)Cc2cc(OC)ccc2O)cc1,753
6,CCN(CCCN1CCCCC1)c1cc(C)nc(Nc2cc(C(F)(F)F)ccc2C)n1,862
7,NS(=O)(=O)CCc1cccc(Nc2nccc(-c3c(-c4cccc(NC(=O)c5c(F)cccc5F)c4)nn4ccccc34)n2)c1,58.4
8,CNS(=O)(=O)c1ccc2c(c1)nc(C1CCN(CC3CCC(NC(=O)/C=C/c4ccc(Cl)c(Cl)c4)CC3)CC1)n2C (stereo not given),670
9,COc1ccc(NC(=O)[C@H](Cc2ccccc2)Nc2cc(C)nc(Nc3ccccc3)n2)cc1,1010
10,O=C(NCCc1cccc(F)c1)c1ccc(N2CCN(c3ccncc3)CC2)cn1,1020
11,CC(C)NCc1ccc(-c2ccc(NC(=O)c3cccc(Cl)c3)cc2)cc1,962
12,COc1cc(NCCCNCc2cn(Cc3cc(Br)cc(Br)c3)c3ccccc23)nc2ccccc12,185
13,Clc1ccc(CNc2ccnc(NCc3ccc4c(c3)OCCCO4)n2)c(Cl)c1,994
14,Cc1ccccc1OCC(O)CNC1CCC(NCC(O)COc2ccccc2C)CC1 (stereo not given),1190
15,O=C(Nc1ccc(C(F)(F)F)cc1)c1cccc(S(=O)(=O)NCC2CCCN(CC3CCCCC3)C2)c1 (stereo not given),750
16,Cc1cc(N[C@@H](Cc2ccccc2)C(=O)NCc2cccs2)nc(Nc2ccccc2)n1,1240
17,Oc1cccc(Nc2ccnc3cc(-c4ccncc4)ccc23)c1,1050
18,CNCCCCCCc1ccc(CC(C)NCC(O)c2cccc(Cl)c2)cc1 (stereo not given),854
19,O=C(/C=C/c1ccccc1O)NCCCCCN1CCC(c2c[nH]c3ccccc23)CC1,827
20,CC(=O)Nc1ccc(CN2CCC(N(C)c3cc(NC(=O)c4cccc(F)c4)ccn3)CC2)cc1,1380
21,Oc1cc(Nc2ccnc3cc(I)ccc23)c(F)cc1Cl,832
22,CN(CCCN(C)c1cc(NC(=O)c2cccc(F)c2)ccn1)Cc1cccc(O)c1,1920
23,N#Cc1ccc(N(CCOC(=O)c2ccc(Br)s2)Cc2ccccc2C(F)(F)F)cc1C(F)(F)F,1070
24,CC[C@H](NC(=O)c1c(CCCN2CCN(c3ccccc3)CC2)c(-c2ccccc2)nc2cc(O)ccc12)c1ccccc1,780

row,Structure (SMILES),XC50 [nM]
1,CN(C)CCCOc1c(C(C)(C)C)cc(-c2cc(C(C)(C)C)c(OCCCN(C)C)c(C(C)(C)C)c2)cc1C(C)(C)C,270
2,CCCCCCN(C(=O)OCc1ccccc1)C1CCN(C(=O)OC(C)(C)C)CC1C(=O)OCC (stereo not given),366
3,Cc1cc2nc(-c3ccc(OCC(=O)NCc4ccc(C(C)(C)C)cc4)cc3)[nH]c2cc1C,1060
4,COCc1nc(N)nc(N)c1-c1ccc(Cl)c(Cl)c1,1020
5,COc1cc(OC)nc(C(Sc2ccc(NC(=O)c3cccs3)cc2)c2ccccc2)n1 (stereo not given),57.5
6,Nc1nc2c(ncn2OC[C@H]2COP(=O)(O)CO2)c(=O)[nH]1,569
7,COc1ccc2ncc(F)c(CCN3CCC4(CC3)COC(c3cc5c(cn3)OCCO5)=N4)c2n1,216
8,Cc1cc(-c2nc3ccc(CN4CCN(C)CC4)cc3[nH]2)nn1Cc1cc(Cl)ccc1OCc1ccccc1,1120
9,O=C(Nc1ccc(Cn2ncc(N3CCCNCC3)c(Cl)c2=O)cc1)Nc1cccc(Oc2ccccc2)c1,987
10,Cc1ccc2[nH]c(-c3ccc(C=CC(=O)NCc4ccc(Cl)c(Cl)c4)cc3)nc2c1,901
11,Cc1cccc2nc(-c3ccc(-c4cccc(CN5CCCC(N)C5)c4)s3)[nH]c12 (stereo not given),539
12,Cc1cccc(Nc2nc(C)cc(N3CCCN(CC4CCCCC4)CC3)n2)c1,1120
13,COc1ccc(NC(=O)NC2CCN(c3ccnc4cc(Cl)ccc34)CC2)cc1,731
14,N#Cc1ccc(CNCCCCCCCNCc2ccc(-c3ccccc3)cc2)cc1,970
15,Cc1cc(N(C)CCN(C)C)nc(Nc2ccc(Cl)cc2)n1,968
16,CCCCOC(=O)C1=C(C)NC2=C(C(=O)CCC2)C1c1ccc(OC)c(Br)c1 (stereo not given),603
17,COc1cc(NC(=O)/C=C/c2cccc3ccoc23)ccc1OCCN(C(C)C)C(C)C,1040
18,N#Cc1cccc(NC(=O)Nc2ccc(-c3csc(-c4nc5ccccc5[nH]4)c3)cc2)c1,152
19,Cc1ccc2nc3c(cc(C(=O)NCCc4ccccc4)c(=N)n3CCCOC(C)C)c(=O)n2c1,892
20,COc1cc2nc(N3CCC(CNC(=O)c4ccc(-c5ccc(C(=O)N(C)C)cc5C)cc4)CC3)nc(N3CCN(C)CC3)c2cc1OC,1230
21,Cc1cccc(C)c1N1CCN(C2CCC(NC(=O)c3cc4ccccc4[nH]3)CC2)CC1 (stereo not given),601
22,CC(Nc1ccc2c(c1)OCCO2)C(=O)Nc1cc(C(F)(F)F)ccc1N1CCOCC1 (stereo not given),408
23,CN1CCCN(Cc2cccc(-c3ccc(NS(=O)(=O)c4cccc5cccnc45)cc3)c2)CC1,957
24,FC(F)(F)c1ccc2[nH]c(-c3cccc(-c4ccc(CNCc5ccccc5)cc4)c3)nc2c1,163

row,Structure (SMILES),XC50 [nM]
1,COc1ccccc1-n1c(-c2ccc3ccccc3c2)csc1=NC(=O)c1ccccc1,204
2,O=C(Nc1cccc(-c2ccc(CN3CCCC3)cc2)c1)c1cccc(Cl)c1,430
3,CC1CC(C)CN(S(=O)(=O)c2cc(C(=O)Nc3cccc([N+](=O)[O-])c3)ccc2Br)C1 (stereo not given),898
4,N#Cc1ccc(C(=O)Nc2cccc(-c3ccc(CN4CCCC4)cc3)c2)cc1,723
5,CN(C)c1c(CNCCCCCCNCc2ccc3ccccc3c2N(C)C)ccc2ccccc12,463
6,CCN(CC)CCNC(=O)c1ccc(NC(=O)c2cc3c(C)nn(-c4ccc(Cl)cc4)c3s2)cc1,253
7,CCCCCC(C)C(C)c1cc(O)c2c3c(c(=O)oc2c1)CN(Cc1ccccc1)CC3 (stereo not given),605
8,CC(C)C[C@H](NC(=O)c1cc2ccccc2s1)C(=O)N[C@H]1CCN(Cc2ccc(OCCCN(C)C)c(Cl)c2)C1,901
9,O=C(Nc1cccc(OC2CCN(Cc3ccsc3)CC2)c1)c1ccc(C(F)(F)F)cc1,765
10,COc1ccc2nccc([C@@H](O)CN3CCC(NCc4cc5oc(=O)[nH]c5cc4Cl)CC3)c2c1,380
11,CS(=O)(=O)Cc1ccc(Nc2nccc(-c3c(-c4cccc(NC(=O)c5c(F)cccc5F)c4)nn4ccccc34)n2)cc1,150
12,Cc1cccc2nc(-c3ccc(-c4ccc(CNCc5cnn(-c6ccccc6)n5)cc4)s3)[nH]c12,718
13,Cc1cc(OCCCN2CCN(CCN3CCOCC3)CC2)ccc1NC(=O)COc1ccc(Cl)cc1C(=O)c1cc(Cl)cc(C#N)c1,697
14,CCC(CC)(Cc1ccccc1)NC(=O)[C@H](CC(C)C)Nc1ccc(C#N)c2ccccc12,913
15,Cc1n[nH]c2cc(F)c(-c3cc(OC[C@@H](N)Cc4ccccc4)cnc3-c3ccoc3)cc12,1040
16,CCOC(=O)NC1=NC(=N)N(OCCCOc2cc(Cl)c(Cl)cc2Cl)C(C)(C)N1,3.2
17,CCOc1c(N2CCN(CCCCNC(=O)c3ccc(NC(=O)c4ccc(Cl)cc4)cc3)CC2)ccc2ccccc12,684
18,N#Cc1ccc(-c2ccc(C(=O)NC3CCN(CCN4CCc5c(cccc5C(F)(F)F)C4)CC3)cc2)cc1,703
19,Cc1ccc(/C=C/C(=O)NC2CCC(N3CCC(c4ccccc4C)CC3)CC2)cc1C (stereo not given),809
20,O=C(Nc1cccc(-c2ccc(CN3CCC(O)CC3)cc2)c1)c1cccc(Cl)c1,764
21,COc1ccc2nccc([C@@H](O)CN3CCC(NC(=O)Cc4cc5ccccc5s4)CC3)c2c1,906
22,CCc1cn2c3c(cc(C(=O)N[C@@H](Cc4ccccc4)[C@H](O)CNC4CCOCC4)cc13)N(C(C)C)S(=O)(=O)CC2,83.6
23,NC(=O)C1CCN(Cc2cccc(-c3cccc(-c4nc5cc(F)ccc5[nH]4)c3)c2)CC1,853
24,O=C(Nc1ccc2c(ccn2C2CCCN(Cc3cc(F)cc(F)c3F)CC2)c1)c1ccco1 (stereo not given),651

row,Structure (SMILES),XC50 [nM]
1,CCOC(=O)c1nc2ccc(SC3CCCCC3)cn2c1Br,1060
2,FC(F)(F)COc1ccc2ccccc2c1CCNCCCCNCCc1c(OCC(F)(F)F)ccc2ccccc12,426
3,CC1CN(c2cc(=O)n(Cc3ccc(NC(=O)Nc4ccc(-c5ccccc5)cc4)cc3)cn2)CC(C)N1 (stereo not given),974
4,O=S(=O)(Nc1cccc(CCN2CCC(N3CCCCC3)CC2)c1)c1ccc(Oc2ccccc2)cc1,769
5,Cc1ccc(NC(=O)c2cccc(CN3CCCN(Cc4cccc(O)c4)CC3)c2)cc1C,1040
6,CC(C)CCCC(C)NC[C@@H](O)[C@H](Cc1ccccc1)NC(=O)c1cc(N2CCCC2=O)cc(N(c2ccccc2)S(C)(=O)=O)c1 (stereo not given in full),58.4
7,N#Cc1ccc(-c2ccc(C(=O)NCCCCN3CCC(c4ccc5c(c4OCC(N)=O)CCCC5)CC3)nc2)cc1,730
8,CN(C(=O)Cc1ccc(Cl)cc1)C1CCN(CCCCCNC(=O)/C=C/c2ccc(Cl)c(Cl)c2)CC1,719
9,C=CCOC(=O)N1CCC(CNCc2cccc(-c3ccc(-c4nc5ccccc5[nH]4)s3)c2)C1 (stereo not given),272
10,CCN(CCNS(C)(=O)=O)c1ccc(N)c(C)c1,875
11,O=C(NCCCc1ccccc1)c1csc(C2CCCN(C(=O)c3ccc(O)c(-c4ccccc4)c3)C2)n1 (stereo not given),913
12,c1ccc(CCNCc2ccc(-c3ccc(CNc4ccc5ncccc5c4)cc3)cc2)cc1,916
13,Cc1[nH]c2ccccc2c1C1=CCN(CCCCCNC(=O)/C=C/c2ccc(Cl)c(Cl)c2)CC1,272
14,Cc1cc(N2CCOCC2)nc(Nc2ccc(NC(=O)c3cccc4ccccc34)cc2)n1,1300
15,CC(C)Cn1ccc2c3c(N)nc(N)nc3ccc21,34.2
16,C/C=C1/CN2CC[C@H]1C[C@H]2[C@H](O)c1ccnc2ccc(OC)cc12,199
17,O=C(NCCc1ccc(F)cc1)c1ccc(N2CCN(c3ccncc3)CC2)nc1,1420
18,O=C(NC1CCN(Cc2ccccc2)CC1)c1csc2nc(-c3ccc(Cl)cc3)cn12,911
19,O=c1cc(NCCCCNCc2cccc(Cl)c2)[nH]c2ccccc12,743
20,Cc1ccc(-c2nc3ccccc3o2)cc1NCc1cc(Cc2ccccc2)ccc1O,1030
21,CN(C)c1ccc(-c2csc(C(=O)NCC3CCN(Cc4ccc(C(C)(C)C)cc4)C3)c2)cc1 (stereo not given),986
22,O=C(N[C@H]1CCN(CCc2ccc(O[C@H]3CCNC3)c(Br)c2)C1)c1ccc(Cl)c(Cl)c1,658
23,C(=NN=c1cc[nH]c2ccccc12)c1ccncc1,743
